Assay: in vitro
Settings: human, hela cells, % viability

O=C1N=C(NC2C3CC4CC(C3)CC2C4)OC12CCCC2 (stereo not drawn) [CBK113576]
viability at 28.5 h, 10 µM: 94.2%

O=c1sn(C2CCCCC2)c(=O)n1Cc1ccc(F)cc1 [CBK113604]
viability at 28.5 h, 10 µM: 90.8%

Cc1ccccc1-n1sc(=O)n(Cc2ccc(F)cc2)c1=O [CBK113605]
viability at 28.5 h, 10 µM: 101%

CC(=O)OC1CCn2c1nc1ccccc12 (stereo not drawn) [CBK113621]
viability at 28.5 h, 10 µM: 92.6%

Cc1ccc2c(c1)nc1n2CCC1O (stereo not drawn) [CBK113622]
viability at 28.5 h, 10 µM: 88.1%

OC1CCn2c1nc1cc(Cl)ccc12 (stereo not drawn) [CBK113623]
viability at 28.5 h, 10 µM: 79.2%

CC(=O)Nc1cccc(-c2nc(-c3ccc(C#N)cc3)cnc2N)c1 [CBK113659]
viability at 28.5 h, 10 µM: 100%

O=C1CSC2c3ccccc3C(=O)N2c2ccccc21 (stereo not drawn) [CBK113670]
viability at 28.5 h, 10 µM: 108%

NS(=O)(=O)c1cc(C(=O)O)ccc1Cl [CBK113676]
viability at 28.5 h, 10 µM: 108%

Cn1c(=O)sn(-c2ccccc2)c1=O [CBK113677]
viability at 28.5 h, 10 µM: 115%

Cc1oc(S(=O)(=O)N(C)C)cc1C(=O)O [CBK113681]
viability at 28.5 h, 10 µM: 98.1%

O=C1c2ccccc2C(=O)N1c1ccccn1 [CBK113682]
viability at 28.5 h, 10 µM: 99.5%

CC(C)c1ccc(N2C(=O)SC(c3ccccc3)C2=O)cc1 (stereo not drawn) [CBK113687]
viability at 28.5 h, 10 µM: 91.1%

Cc1ccc(NC(=O)c2ccccc2NS(=O)(=O)c2ccc(C(C)C)cc2)cc1 [CBK113800]
viability at 28.5 h, 10 µM: 77.8%

Cc1cc(C)cc(NC(=O)c2ccccc2NS(=O)(=O)c2ccc(F)c(F)c2F)c1 [CBK113886]
viability at 28.5 h, 10 µM: 89.1%

Cc1cc(C)cc(NC(=O)c2ccccc2NS(=O)(=O)c2cccc(Cl)c2)c1 [CBK113887]
viability at 28.5 h, 10 µM: 94.9%

COc1ccc(NS(=O)(=O)c2ccc(Cl)cc2Cl)c(C(=O)NCc2ccccc2)c1 [CBK113943]
viability at 28.5 h, 10 µM: 98.4%

COc1ccc(NS(=O)(=O)c2c(Cl)cccc2Cl)c(C(=O)NCc2ccccc2)c1 [CBK113952]
viability at 28.5 h, 10 µM: 79.8%

COc1ccc(NS(=O)(=O)c2cccc(Cl)c2C)c(C(=O)NCc2ccccc2)c1 [CBK113953]
viability at 28.5 h, 10 µM: 85.3%

COc1ccc(C)cc1S(=O)(=O)Nc1cc(Cl)ccc1C(=O)NCc1ccccc1 [CBK113954]
viability at 28.5 h, 10 µM: 85.5%

COc1ccc(CNC(=O)c2ccccc2NS(=O)(=O)c2cc(Cl)ccc2Cl)cc1 [CBK113964]
viability at 28.5 h, 10 µM: 101%

CCCC(CCC)NC(=O)c1ccc(-n2nc(C(=O)OCC)c(Cl)c2C)cc1 [CBK114323]
viability at 28.5 h, 10 µM: 93.9%

CCOC(=O)c1cnc(C2CC2)nc1NCc1cccc(C)c1C [CBK114707]
viability at 28.5 h, 10 µM: 102%

COCc1nnc(Sc2nccnc2NC(C)C)s1 [CBK115204]
viability at 28.5 h, 10 µM: 99.6%

FC(F)(F)c1ccc(Sc2ccncc2)nc1 [CBK115217]
viability at 28.5 h, 10 µM: 108%

COCc1nnc(Sc2ccc(C(F)(F)F)cn2)s1 [CBK115219]
viability at 28.5 h, 10 µM: 100%

Cc1nnc(Sc2cccc(C(F)(F)F)n2)s1 [CBK115222]
viability at 28.5 h, 10 µM: 95.4%

Cc1ccccc1Sc1ncccc1C(F)(F)F [CBK115231]
viability at 28.5 h, 10 µM: 104%

Cc1ccccc1Sc1cc(C(F)(F)F)ccn1 [CBK115233]
viability at 28.5 h, 10 µM: 94.4%

FC(F)(F)c1ccnc(Sc2cccc(Cl)c2)c1 [CBK115234]
viability at 28.5 h, 10 µM: 94.8%

FC(F)(F)c1cccc(Sc2cccs2)n1 [CBK115242]
viability at 28.5 h, 10 µM: 91.5%

FC(F)(F)c1ccnc(Sc2cccc(Cl)c2)n1 [CBK115247]
viability at 28.5 h, 10 µM: 98.5%

CC(C)Nc1nc2ccccc2nc1Sc1ccncc1 [CBK115250]
viability at 28.5 h, 10 µM: 102%

CC(C)Nc1nc2cc(Cl)c(Cl)cc2nc1Sc1nc[nH]n1 [CBK115261]
viability at 28.5 h, 10 µM: 93.3%

Nc1nnc(Sc2nc3cc(Cl)c(Cl)cc3nc2N2CCCC2)s1 [CBK115267]
viability at 28.5 h, 10 µM: 98.9%

Oc1cccc(Sc2cc(C(F)(F)F)ccn2)c1 [CBK115273]
viability at 28.5 h, 10 µM: 97.7%

c1cnc(N2CCCC2)c(OC2CCNC2)n1 (stereo not drawn) [CBK115284]
viability at 28.5 h, 10 µM: 98.3%

NCCCOc1cc(N2CCCC2)ncn1 [CBK115285]
viability at 28.5 h, 10 µM: 106%

NCCCOc1nc2ccccc2nc1N1CCCC1 [CBK115287]
viability at 28.5 h, 10 µM: 95.8%

c1ccc2nc(N3CCCC3)c(OC3CCNC3)nc2c1 (stereo not drawn) [CBK115288]
viability at 28.5 h, 10 µM: 99.9%

CN1CCC(Oc2nc3cc(Cl)c(Cl)cc3nc2N2CCCC2)CC1 [CBK115290]
viability at 28.5 h, 10 µM: 82.2%

CN1CCN(C)C(COc2nc3cc(Cl)c(Cl)cc3nc2N2CCCC2)C1 (stereo not drawn) [CBK115294]
viability at 28.5 h, 10 µM: 92%

CCOC(=O)c1[nH]c2c([N+](=O)[O-])cccc2c1O [CBK115315]
viability at 28.5 h, 10 µM: 88.1%

COc1cc(C(C[N+](=O)[O-])c2c(C)[nH]c3ccccc23)ccc1O (stereo not drawn) [CBK115317]
viability at 28.5 h, 10 µM: 82.9%

COc1ccc2c(c1OC)C(=O)N(c1cccc([N+](=O)[O-])c1)C2 [CBK115318]
viability at 28.5 h, 10 µM: 99.5%

Cc1cccc(-n2c(C#N)c(O)c3ccccc32)c1C [CBK115319]
viability at 28.5 h, 10 µM: 106%

N#Cc1ccccc1N1C(=O)c2cccc([N+](=O)[O-])c2C1=O [CBK115322]
viability at 28.5 h, 10 µM: 94.1%

O=C1c2cccc([N+](=O)[O-])c2C(=O)N1c1cc(Cl)cc(Cl)c1 [CBK115326]
viability at 28.5 h, 10 µM: 112%

Cc1c(C(=O)O)c2cc(O)ccc2n1-c1ccccc1 [CBK115329]
viability at 28.5 h, 10 µM: 103%

COc1ccc(-n2c(C)c([N+](=O)[O-])c3ccc(O)cc32)cc1 [CBK115330]
viability at 28.5 h, 10 µM: 85%

COc1cc(C)c2c(N)c(C(C)=O)sc2n1 [CBK115336]
viability at 28.5 h, 10 µM: 94%

COC(=O)c1cc(C)nc2sc(C)c(N)c12 [CBK115343]
viability at 28.5 h, 10 µM: 85.8%

Cc1ccc2c(N)c(C(=O)c3ccccc3)sc2n1 [CBK115347]
viability at 28.5 h, 10 µM: 88.1%

CSc1cccc(NC(=O)c2sc3nc(C)cc(C)c3c2N)c1 [CBK115349]
viability at 28.5 h, 10 µM: 94.7%

CCOC(=O)c1c(CN(C)C)n(-c2ccccc2)c2cc(Br)c(OC)cc12 [CBK115360]
viability at 28.5 h, 10 µM: 117%

COc1ccc(C(=O)c2sc3nc(C)cc(C)c3c2N)cc1 [CBK115362]
viability at 28.5 h, 10 µM: 87.7%

O=C1Nc2ccc(C(=O)NCC(O)CO)cc2/C1=C/c1c[nH]c2ncccc12 (stereo not drawn) [CBK115363C]
viability at 28.5 h, 10 µM: 95.3%

CC(=O)OC1CCn2c1nc1cc(C(F)(F)F)ccc12 (stereo not drawn) [CBK115367]
viability at 28.5 h, 10 µM: 75.1%

CCOC(=O)c1sc2ncccc2c1N [CBK115371]
viability at 28.5 h, 10 µM: 83.9%

O=C(O)C(Cc1ccccc1)N1C(=O)c2cccc([N+](=O)[O-])c2C1=O (stereo not drawn) [CBK115372]
viability at 28.5 h, 10 µM: 95.8%

O=C1OC(c2ccccc2)=C/C1=C1/C(=O)Nc2ccccc21 [CBK115375]
viability at 28.5 h, 10 µM: 102%

CCOC(=O)c1sc2nc(C)ccc2c1N [CBK115377]
viability at 28.5 h, 10 µM: 96.5%

COc1ccc2c(c1)nc1n2CCC1OC(C)=O (stereo not drawn) [CBK115379]
viability at 28.5 h, 10 µM: 100%

O=C1N=C(NC2CCCC2)OC12CCN(Cc1ccccc1)CC2 [CBK115430]
viability at 28.5 h, 10 µM: 103%

CS(=O)(=O)N1CC2(CCN(CCCOc3ccccc3)CC2)c2ccccc21 [CBK115457T]
viability at 28.5 h, 10 µM: 106%

CS(=O)(=O)N1CC2(CCN(CCOCc3ccccc3)CC2)c2ccccc21 [CBK115458T]
viability at 28.5 h, 10 µM: 96.4%

CS(=O)(=O)N1CC2(CCN(CC3COc4ccccc4O3)CC2)c2ccccc21 (stereo not drawn) [CBK115461T]
viability at 28.5 h, 10 µM: 101%

CCCc1c(Cc2c(Cl)cccc2Cl)c(=O)n(C)n1C [CBK115466]
viability at 28.5 h, 10 µM: 93%

Cc1[nH]c(=O)[nH]c(=S)c1C(=O)Nc1ccc2[nH]c(C(F)(F)F)nc2c1 [CBK115494]
viability at 28.5 h, 10 µM: 95.2%

COc1cc(NC(=O)c2c(C)[nH]c(=O)[nH]c2=S)cc(C(F)(F)F)c1 [CBK115495]
viability at 28.5 h, 10 µM: 92.3%

COc1ccc(NC(=O)c2c(C)[nH]c(=O)[nH]c2=S)cc1OC [CBK115517]
viability at 28.5 h, 10 µM: 90.4%

Cc1[nH]c(=O)[nH]c(=S)c1C(=O)Nc1ccc2c(c1)OCO2 [CBK115519]
viability at 28.5 h, 10 µM: 100%

NC(=O)c1ccccc1-c1cnc(N)c(-c2ccc(O)cc2)n1 [CBK115536]
viability at 28.5 h, 10 µM: 89.4%

Cc1ccccc1-c1cnc(N)c(-c2ccc(O)cc2)n1 [CBK115544]
viability at 28.5 h, 10 µM: 95%

CCOC(=O)c1ccc(-n2sc3ccccc3c2=O)cc1 [CBK115552]
viability at 28.5 h, 10 µM: 99.1%

CN(C)S(=O)(=O)c1ccc2c(c1)nc1n2CCC1 [CBK115558]
viability at 28.5 h, 10 µM: 71.4%

CC(O)c1nc2ccccc2n1C (stereo not drawn) [CBK115560]
viability at 28.5 h, 10 µM: 94.9%

Cc1[nH]c(=S)[nH]c(=O)c1Cc1cccc2ccccc12 [CBK115563]
viability at 28.5 h, 10 µM: 82.4%

CCOC(=O)c1ccc(NC(=O)c2c(O)[nH]c(=O)[nH]c2=O)cc1 [CBK115565]
viability at 28.5 h, 10 µM (bulk resorufin, single well): 84.7%

O=C(c1ccco1)c1coc2ccc(O)cc12 [CBK115570]
viability at 28.5 h, 10 µM: 113%

CC(O)c1nc2ccc(Cl)cc2[nH]1 (stereo not drawn) [CBK115573]
viability at 28.5 h, 10 µM: 102%

CCn1c(C)nc2cc(Cl)c(Cl)cc21 [CBK115577]
viability at 28.5 h, 10 µM: 89.3%

CCNC(=O)NCc1ccc(F)cc1 [CBK115581]
viability at 28.5 h, 10 µM: 84.9%

O=C(NCc1ccc(F)cc1)Nc1ccccc1F [CBK115584]
viability at 28.5 h, 10 µM: 98.9%

COc1cccc(NC(=O)NCc2ccc(F)cc2)c1 [CBK115590]
viability at 28.5 h, 10 µM: 90.2%

CC(C)Nc1cncc(OC2CCN(C)C2)n1 (stereo not drawn) [CBK115598]
viability at 28.5 h, 10 µM: 90.8%

CC(C)Nc1cncc(OCCN2CCOCC2)n1 [CBK115599]
viability at 28.5 h, 10 µM: 109%

CC(C)Nc1cncc(OCCCN(C)C)n1 [CBK115600]
viability at 28.5 h, 10 µM: 105%

CC(C)Nc1cncc(OCCN2CCNCC2)n1 [CBK115601]
viability at 28.5 h, 10 µM: 93.6%

CC(C)Nc1cncc(OCC2CN(C)CCN2C)n1 (stereo not drawn) [CBK115602]
viability at 28.5 h, 10 µM: 87.7%

CC1(OCCCN2CCCCC2)SC(NC2CC3CCC2C3)=NC1=O (stereo not drawn) [CBK115611]
viability at 28.5 h, 10 µM: 87.2%

CC(C)(C)OC(=O)N1CCN(CCCOC2(C)SC(NC3CC4CCC3C4)=NC2=O)CC1 (stereo not drawn) [CBK115612]
viability at 28.5 h, 10 µM: 95.9%

N#Cc1cccc(-c2cnc(N)c(-c3ccc(O)cc3)n2)c1 [CBK115630]
viability at 28.5 h, 10 µM: 98%

CC(C)Nc1nccnc1OCCc1c[nH]c2ccccc12 [CBK115647]
viability at 28.5 h, 10 µM: 79.7%

CC(C)Nc1cncc(OCc2ccc(Cl)c(Cl)c2)n1 [CBK115653]
viability at 28.5 h, 10 µM: 87.5%

c1cnc(N2CCCC2)c(OCc2ccsc2)n1 [CBK115664]
viability at 28.5 h, 10 µM: 92.2%
